Measurements taken from BindingDB's records for patent US20240209019 (Ardelyx, 2024).

Biological target: T1, 11-beta-hydroxysteroid dehydrogenase type 2 (Homo sapiens, UniProt P80365)
T1 sequence (P80365 whole entry): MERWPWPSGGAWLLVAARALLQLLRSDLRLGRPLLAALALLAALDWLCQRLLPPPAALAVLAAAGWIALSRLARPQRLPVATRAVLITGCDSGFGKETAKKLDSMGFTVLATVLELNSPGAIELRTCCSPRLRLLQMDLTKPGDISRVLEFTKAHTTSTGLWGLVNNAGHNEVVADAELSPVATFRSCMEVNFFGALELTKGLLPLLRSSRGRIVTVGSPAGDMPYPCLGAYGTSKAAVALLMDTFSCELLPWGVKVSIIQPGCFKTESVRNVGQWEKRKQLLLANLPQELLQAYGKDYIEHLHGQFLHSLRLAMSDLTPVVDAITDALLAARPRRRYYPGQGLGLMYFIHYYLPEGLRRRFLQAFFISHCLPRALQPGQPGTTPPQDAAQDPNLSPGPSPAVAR
Test: HSD2 Activity
Description: Compounds were diluted in DMSO and serial dilutions prepared by titrating in DMSO. Compounds were then diluted into DMEM/F12. Transwell plates containing descending colon cultures were washed twice with DMEM/F12 and compound was added to the apical compartment. Cells were incubated with test compound for 30 minutes at 37° C., 5% CO2 to equilibrate across the cell membrane. A second compound plate was prepared in which the serially diluted compounds in DMSO were diluted into DMEM/F12 containing 40 nM cortisol. Following the 30 minute pre-incubation step, the apical media was aspirated and compounds diluted in DMEM/F12 with 40 nM cortisol were added to the apical side of the transwell. The plate was then incubated for four hours at 37° C., 5% CO2. Cortisol levels were measured using a cortisol HTRF assay kit as described by the manufacturer (Cisbio).

Structure (SMILES): CCCOCCOCCOCCOC(=O)O[C@H]1CC[C@@]2(C)[C@@H](CC[C@]3(C)[C@@H]2C(=O)C=C2[C@@H]4C[C@@](C)(C(=O)O)CC[C@]4(C)CC[C@]23C)[C@]1(C)C(=O)O [US20240209019, Compound noid16]
- IC50: > 10 µM
